Measurements from ChEMBL document CHEMBL5385943, “Synthesis, biological evaluation and molecular docking study of pyrimidine linked thiazolidinedione derivatives as potential antimicrobial and antitubercular agents” (Bioorg Med Chem Lett, 2024).
Values after ≈ are worked out from the molar mass of the structure shown. Active and inactive are the calls of the source. The rule behind the calls is not given here.

What was measured:
[1] = Cytotoxicity against human WI-38 cells assessed as reduction in cell growth; format: toxicity, cell-based
[2] = Selectivity index, ratio of CC50 for human WI-38 cells to MIC for Mycobacterium tuberculosis H37Rv; format: toxicity; details: read-out: Selectivity Index
[3] = system: Mycobacterium tuberculosis; assay: Antitubercular activity against Mycobacterium tuberculosis H37Rv by agar dilution method; format: functional
Staphylococcus aureus [4] = assay: Antibacterial activity against methicillin resistant Staphylococcus aureus at 1 times MIC measured after 150 mins by time kill assay; format: functional, organism-based
Candida albicans = assay: Antimicrobial activity against Candida albicans assessed as reduction in microbial growth; format: functional
Escherichia coli [5] = assay: Antibacterial activity against Escherichia coli at 1 times MIC measured after 120 to 150 mins by time kill assay; format: functional, organism-based; details: time 120-150 min
Staphylococcus aureus [6] = assay: Antimicrobial activity against Staphylococcus aureus assessed as reduction in microbial growth; format: functional
Bacillus subtilis = assay: Antimicrobial activity against Bacillus subtilis assessed as reduction in microbial growth; format: functional
Staphylococcus aureus [7] = assay: Antimicrobial activity against methicillin-resistant Staphylococcus aureus assessed as reduction in microbial growth; format: functional
Escherichia coli [8] = assay: Antimicrobial activity against Escherichia coli assessed as reduction in microbial growth; format: functional
Staphylococcus aureus [9] = assay: Antibacterial activity against methicillin resistant Staphylococcus aureus at 1 times MIC measured after 120 to 150 mins by time kill assay; format: functional, organism-based; details: time 120-150 min
Escherichia coli [10] = assay: Antibacterial activity against Escherichia coli at 1 times MIC measured after 150 mins by time kill assay; format: functional, organism-based
Staphylococcus aureus [11] = assay: Antibacterial activity against methicillin resistant Staphylococcus aureus at 1 times MIC measured after 180 mins by time kill assay; format: functional, organism-based

## NNC(=O)c1ccncc1 [ISONIAZID]
[1]
  CC50: > 50 µM
[2]
  selectivity ratio: 143
[3]
  MIC: 0.35 µM (≈ 0.048 µg/mL)

## GENTAMICIN
Staphylococcus aureus [4]
  Activity: inactive

## O=C1S/C(=C\c2cnc(C(F)(F)F)nc2)C(=O)N1C(=O)c1ccc(C(F)(F)F)cc1
Candida albicans
  MIC: 8.1 µM
Escherichia coli [5]
  Activity: Active
[1]
  CC50: > 50 µM
Staphylococcus aureus [6]
  MIC: 6.4 µM
Bacillus subtilis
  MIC: 6.1 µM
Staphylococcus aureus [7]
  MIC: 10.8 µM
Escherichia coli [8]
  MIC: 8.4 µM
[2]
  selectivity ratio: 227
Staphylococcus aureus [9]
  Activity: Active
[3]
  MIC: 0.22 µM (≈ 0.0984 µg/mL)

## OC(Cn1cncn1)(Cn1cncn1)c1ccc(F)cc1F [FLUCONAZOLE]
Candida albicans
  MIC: 14.9 µM

## CN[C@@H]1[C@H](O[C@H]2[C@H](O[C@H]3[C@H](O)[C@@H](O)[C@H](N=C(N)N)[C@@H](O)[C@@H]3N=C(N)N)O[C@@H](C)[C@]2(O)C=O)O[C@@H](CO)[C@H](O)[C@H]1O [STREPTOMYCIN]
Staphylococcus aureus [6]
  MIC: 11.9 µM
Bacillus subtilis
  MIC: 11.5 µM
Escherichia coli [8]
  MIC: 14.3 µM

## Cc1ccc(C(=O)N2C(=O)S/C(=C\c3cnc(C(F)(F)F)nc3)C2=O)cc1
Candida albicans
  MIC: 41.3 µM
[1]
  CC50: > 50 µM
Staphylococcus aureus [6]
  MIC: 30.6 µM
Bacillus subtilis
  MIC: 24.9 µM
Staphylococcus aureus [7]
  MIC: 71.8 µM
Escherichia coli [8]
  MIC: 35.8 µM
[2]
  selectivity ratio: 5.89
[3]
  MIC: 8.49 µM (≈ 3.34 µg/mL)

## O=C1S/C(=C\c2cnc(C(F)(F)F)nc2)C(=O)N1C(=O)c1cc(F)cc(F)c1
Candida albicans
  MIC: 11.8 µM
[1]
  CC50: > 50 µM
Staphylococcus aureus [6]
  MIC: 10.3 µM
Bacillus subtilis
  MIC: 9.7 µM
Staphylococcus aureus [7]
  MIC: 21.9 µM
Escherichia coli [8]
  MIC: 11.2 µM
[2]
  selectivity ratio: 70.4
[3]
  MIC: 0.71 µM (≈ 0.295 µg/mL)

## O=C1S/C(=C\c2cnc(C(F)(F)F)nc2)C(=O)N1C(=O)c1ccc(F)cc1
Candida albicans
  MIC: 16.8 µM
[1]
  CC50: > 50 µM
Staphylococcus aureus [6]
  MIC: 13.7 µM
Bacillus subtilis
  MIC: 12.8 µM
Staphylococcus aureus [7]
  MIC: 31.7 µM
Escherichia coli [8]
  MIC: 15.1 µM
[2]
  selectivity ratio: 15.4
[3]
  MIC: 3.25 µM (≈ 1.29 µg/mL)

## CC(=O)NC[C@H]1CN(c2ccc(N3CCOCC3)c(F)c2)C(=O)O1 [LINEZOLID]
Staphylococcus aureus [7]
  MIC: 23.1 µM

## O=C1S/C(=C\c2cnc(C(F)(F)F)nc2)C(=O)N1C(=O)c1ccc(O)cc1
Candida albicans
  MIC: 53.7 µM
[1]
  CC50: > 50 µM
Staphylococcus aureus [6]
  MIC: 37.4 µM
Bacillus subtilis
  MIC: 28.3 µM
Staphylococcus aureus [7]
  MIC: 79.2 µM
Escherichia coli [8]
  MIC: 40.9 µM
[2]
  selectivity ratio: 4.58
[3]
  MIC: 10.9 µM (≈ 4.31 µg/mL)

## O=C1S/C(=C\c2cnc(C(F)(F)F)nc2)C(=O)N1C(=O)c1cc(F)c(F)c(F)c1
Candida albicans
  MIC: 9.5 µM
[1]
  CC50: > 50 µM
Staphylococcus aureus [6]
  MIC: 8.6 µM
Bacillus subtilis
  MIC: 8.1 µM
Staphylococcus aureus [7]
  MIC: 15.4 µM
Escherichia coli [8]
  MIC: 9.7 µM
Escherichia coli [10]
  Activity: Active
[2]
  selectivity ratio: 156
[3]
  MIC: 0.32 µM (≈ 0.139 µg/mL)
Staphylococcus aureus [11]
  Activity: Active

## O=C1S/C(=C\c2cnc(C(F)(F)F)nc2)C(=O)N1C(=O)c1ccc(Br)cc1
Candida albicans
  MIC: 4.7 µM
[1]
  CC50: > 50 µM
Staphylococcus aureus [6]
  MIC: 20.7 µM
Bacillus subtilis
  MIC: 17.3 µM
Staphylococcus aureus [7]
  MIC: 48.2 µM
Escherichia coli [8]
  MIC: 22.6 µM
[2]
  selectivity ratio: 8.17
[3]
  MIC: 6.12 µM (≈ 2.8 µg/mL)

## O=C1S/C(=C\c2cnc(C(F)(F)F)nc2)C(=O)N1C(=O)c1ccc(Cl)cc1
Candida albicans
  MIC: 19.4 µM
[1]
  CC50: > 50 µM
Staphylococcus aureus [6]
  MIC: 16.8 µM
Bacillus subtilis
  MIC: 14.4 µM
Staphylococcus aureus [7]
  MIC: 36.4 µM
Escherichia coli [8]
  MIC: 17.8 µM
[2]
  selectivity ratio: 10.3
[3]
  MIC: 4.83 µM (≈ 2 µg/mL)

## O=C1S/C(=C\c2cnc(C(F)(F)F)nc2)C(=O)N1C(=O)c1ccc([N+](=O)[O-])cc1
Candida albicans
  MIC: 12.9 µM
[1]
  CC50: > 50 µM
Staphylococcus aureus [6]
  MIC: 10.9 µM
Bacillus subtilis
  MIC: 10.2 µM
Staphylococcus aureus [7]
  MIC: 24.1 µM
Escherichia coli [8]
  MIC: 11.7 µM
[2]
  selectivity ratio: 47.2
[3]
  MIC: 1.06 µM (≈ 0.45 µg/mL)

## O=C1S/C(=C\c2cnc(C(F)(F)F)nc2)C(=O)N1C(=O)c1ccccc1
Candida albicans
  MIC: 30.6 µM
[1]
  CC50: > 50 µM
Staphylococcus aureus [6]
  MIC: 27.1 µM
Bacillus subtilis
  MIC: 19.5 µM
Staphylococcus aureus [7]
  MIC: 62.5 µM
Escherichia coli [8]
  MIC: 28.3 µM
[2]
  selectivity ratio: 8.89
[3]
  MIC: 5.62 µM (≈ 2.13 µg/mL)
